Key:
[1] = target: T1, human recombinant GSK3β (Homo sapiens, UniProt P49841); assay: GSK-3β enzymatic assay (Z'-LYTE FRET); assay type: biochemical; details: 2 nM enzyme, 12.5 µM ATP, 2 µM substrate peptide, 60 min incubation at room temperature; read-out: GSK3β inhibition average EC50
T1 construct: 6His (N); purchased Millipore (Billerica, MA, USA)
Method: The enzymatic activity of GSK3β was determined with a commercial system based on the Z'-LYTE® technology, available from Invitrogen Life Technologies (Carlsbad, CA, USA), using human recombinant GSK3β (N-terminal 6His-tagged recombinant enzyme with an H350L mutation) from Millipore (Billerica, MA, USA) as the enzyme source. This technology utilizes the fluorescence resonance energy transfer ("FRET") process between fluorescein and coumarin. The assay principle is based on the differential sensitivity of phosphorylated and non-phosphorylated peptide to proteolytic cleavage, which precludes the energy transfer process between the two fluorophores attached to both sides of the cleavage site. […] The assay is performed in 384-well black plates, in a final volume of 10 µl, with 2 nM enzyme concentration in 50 mM Hepes pH 7.5, 50 mM MgCl2, 1 mM EGTA and 0.05% Brij-35, using 12.5 µM ATP and 2 µM substrate peptide. The latter is a synthetic peptide, provided by Invitrogen under the commercial name "Ser/Thr 9 peptide", and it is based upon the sequence of a GSK3β substrate protein (glycogen synthase I) containing Ser-641. The peptide is labeled at both ends with fluorescein and coumarin. The assay is carried out in the presence of different concentrations of the tested compound, at a final 1% (v/v) DMSO concentration. After a 60 min incubation at room temperature, 5 µl of a commercial protease solution (sold by the same vendor in the assay kit) is added and a subsequent 1h incubation at room temperature is performed, before adding 5 µl of a suitable "stop solution", also provided by the vendor in the kit. After that, fluorescence intensity is recorded, monitoring emission at both 445 and 520 nm, upon excitation at 400 nm. An emission ratio is finally calculated, using the quotient among the emission at 445 nm divided by that at 520 nm.
The emission ratio of each tested sample is normalized to that of the control wells, so that for every compound concentration the percentage of inhibition is calculated by using the following equation: %Inhibition = 100⋅(E-S)/(E-B) [formula] wherein "S" is the emission ratio of the sample being considered, "E" is the average emission ratio of wells, including enzyme in the absence of inhibitors, and "B" is the average emission ratio of wells without enzyme. The inhibition values obtained at every compound concentration are finally used to calculate the EC50 of the tested compound, this parameter being the concentration of the compound which causes 50% of inhibition. For that purpose, the data were fitted to a classical 4-parameters isotherm equation using the nonlinear regression function of GraphPad™ Prism 5.0 (GraphPad Software Inc.). Such equation is described below: % Inhibition = L + (H-L)/(1 + (((EC50)/(C)))^n) [formula] wherein "L" is the lower asymptote of the theoretical sigmoidal curve, "H" is the higher asymptote, "C" is the concentration of compound and "n" is the Hill coefficient.

[2] = test system: phosphorylation at the Ser-396 residue of Tau protein in human neuroblastoma SH-SY5Y cells; assay: Cellular assay: Tau Ser-396 phosphorylation by ELISA in SH-SY5Y cells; assay type: cell-based; details: 18 h incubation at 37°C, 1% (v/v) DMSO, read-out: pSer396-Tau average EC50
Method: The effect of the compound in cells is determined by monitoring the level of phosphorylation at the Ser-396 residue of Tau protein in human neuroblastoma SH-SY5Y cells. Cells are grown in 96-well plates: 30,000 cells per well in a volume of 100 µl of 1:1 MEM:Ham's F12 medium including 10% (v/v) fetal bovine serum, 100 U/ml penicillin, 100 µg/ml streptomycin and 1% (v/v) 100-fold concentrated commercial stock of non-essential aminoacids (Gibco, Carlsbad, CA, USA), and incubated at 37°C during 24 h. Then, the corresponding amount of test compound is added to the wells to reach the desired concentration in 1% (v/v) DMSO. […] 60 µl of this mixture is then placed in an empty 96-well plate and the levels of Ser-396 phosphorylation are determined using a commercial ELISA kit (Biosource, Carlsbad, CA, USA), following manufacturer's instructions. The levels of phosphorylation are expressed as percentage values, after normalizing them to those in untreated cells and those values are used to calculate EC50s, as described above for GSK-3.

T1 sequence (P49841 whole entry): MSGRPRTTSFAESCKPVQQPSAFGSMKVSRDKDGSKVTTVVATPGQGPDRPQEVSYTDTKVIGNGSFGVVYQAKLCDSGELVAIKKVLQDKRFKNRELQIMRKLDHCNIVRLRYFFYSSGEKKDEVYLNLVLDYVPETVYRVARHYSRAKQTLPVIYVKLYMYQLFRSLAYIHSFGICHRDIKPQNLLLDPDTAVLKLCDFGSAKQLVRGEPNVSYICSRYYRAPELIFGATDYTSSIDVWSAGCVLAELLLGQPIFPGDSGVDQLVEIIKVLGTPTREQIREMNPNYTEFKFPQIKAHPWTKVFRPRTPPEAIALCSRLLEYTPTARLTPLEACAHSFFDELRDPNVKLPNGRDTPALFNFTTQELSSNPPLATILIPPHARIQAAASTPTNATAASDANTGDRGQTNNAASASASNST

Compound	EC50 [1] [nM]	EC50 [2] [nM]
CCOC(=O)CCNC(=O)SSCc1ccccc1 [Compound 7, 3-(4-Phenyl-2,3-dithia-butyrylamino)-propionic acid ethyl ester]	910	–
CN(C(=O)SSCc1ccccc1)C(=O)c1ccccc1 [Compound 18]	10000	–
CCOC(=O)CN(Cc1ccccc1)C(=O)SSCc1ccccc1 [Compound 12]	260	–
CCOC(=O)[C@H](Cc1ccccc1)NC(=O)SSCc1ccccc1 [Compound 3, (2S) 3-Phenyl-2-(4-phenyl-2,3-dithia-butyrylamino)-propionic acid ethyl ester]	3900	–
COC(=O)[C@@H]1CCCN1C(=O)SSCc1ccccc1 [Compound 14]	130	–
CCOC(=O)CC[C@H](NC(=O)SSCc1ccccc1)C(=O)OCC [Compound 8, (2S) 2-(4-Phenyl-2,3-dithia-butyrylamino)-pentanedioic acid diethyl ester]	6800	–
CCOC(=O)CNC(=O)SSCc1ccccc1 [Compound 2, (4-Phenyl-2,3-dithia-butyrylamino)-acetic acid ethyl ester]	460	–
COC(=O)C(Cc1ccccc1)NC(=O)SSCc1ccccc1 (centres unmarked) [Compound 16]	1300	–

Continued by falling EC50 [1], values first:

EC50 [1] [nM]	EC50 [2] [nM]	Compound
14000	–	CCOC(=O)[C@H](CC(C)C)NC(=O)SSCc1ccccc1 [Compound 5, (2S) 4-Methyl-2-(4-phenyl-2,3-dithia-butyrylamino)-pentanoic acid ethyl ester]
8700	–	COC(=O)CC(NC(=O)SSCc1ccccc1)C(=O)OC (centres unmarked) [Compound 10]
5400	–	CCOC(=O)[C@H](C)NC(=O)SSCc1ccccc1 [Compound 9, (2S) 2-(4-Phenyl-2,3-dithia-butyrylamino)-propionic acid ethyl ester]
3300	–	COC(=O)[C@@H](Cc1c[nH]c2ccccc12)NC(=O)SSCc1ccccc1 [Compound 11]
1500	–	CCOC(=O)[C@H](Cc1ccc(O)cc1)NC(=O)SSCc1ccccc1 [Compound 4, (2S) 3-(4-Hydroxy-phenyl)-2-(4-phenyl-2,3-dithia-butyrylamino)-propionic acid ethyl ester]
470	–	O=C(SSCc1ccccc1)N1C(=O)c2ccccc2C1=O [Compound 17]
290	4200	COC(=O)CN(C)C(=O)SSCc1ccccc1 [Compound 1, [Methyl-(4-phenyl-2,3-dithia-butyryl)-amino]-acetic acid methyl ester]
220	–	CCOC(=O)CN(CC(=O)OCC)C(=O)SSCc1ccccc1 [Compound 13]

Source: patent EP2527322A1, “Carbamyl alkylphenyl disulfide derivatives and their therapeutic uses” (NOSCIRA, S.A., priority 2011, dated 2012)
